For the first assay, the system named is HIV-1 (H9IIIB strain). Kind of assay: Cell-based HIV infection assay using a reporter (Cell-Based), MT4-GFP cells. As to conditions: Human immunodeficiency virus 1, MT4-GFP cells infected with HIV-1 H9IIIB; 50% normal human serum; mean of at least two independent experiments; read-out: Cell-based IP. In a few lines:
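MT4-GFP cells (HIV LTR-driven GFP) infected 24 h with HIV-1 H9IIIB at low MOI, then washed and plated with compounds in RPMI + 50% normal human serum, 0.4% DMSO final. Green cells counted at 24 and 48 h; R0 = 48 h/24 h ratio, inhibition normalized to DMSO and triple-drug control; IC50 from 4-parameter fit.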
In the case of `N[C@H](C(=O)Nc1cccc(F)c1CC[C@H]1CNCCN1S(=O)(=O)c1ccccc1)[C@@H](c1ccc(Cl)cc1)c1cncc(C(F)(F)F)c1` [Example 6, (2S,3S)-2-amino-3-(4-chlorophenyl)-N-(3-fluoro-2-(2-((S)-1-(phenylsulfonyl)piperazin-2-yl)ethyl)phenyl)-3-(5-(trifluoromethyl)pyridine-3-yl)propanamide], the IC50 turned out to be 7.8 nM.

With `O=C(C[C@@H](c1ccc(F)cc1)c1cc(F)cc(F)c1)Nc1cncc(F)c1CC[C@H]1CNCCN1S(=O)(=O)N1CCCC(F)(F)C1` [Example 332, (3S)-3-(3,5-difluorophenyl)-N-[4-(2-{(2S)-1-[(3,3-difluoropiperidin-1-yl)sulfonyl]piperazin-2-yl}ethyl)-5-fluoropyridin-3-yl]-3-(4-fluorophenyl)propanamide], the IC50 is 410 nM.

Turning to `COC(=O)N[C@H](C(=O)Nc1cccc(F)c1CC[C@H]1CNC[C@H](C)N1S(=O)(=O)c1ccc(OC(F)(F)F)cc1)[C@@H](c1ccc(Cl)cc1)C(C)C` [Example 142, (βR)-4-chloro-N-(3-fluoro-2-{2-[(2S,6S)-6-methyl-1-{[4-(trifluoromethoxy)phenyl]sulfonyl}piperazin-2-yl]ethyl}phenyl)-Nα-(methoxycarbonyl)-β-(1-methylethyl)-L-phenylalaninamide], the IC50 came to 84 nM.

As for `Cn1ccc(S(=O)(=O)N2CCNC[C@@H]2CCc2c(F)cncc2NC(=O)C[C@@H](c2ccc(F)cc2)c2cc(F)cc(F)c2)n1` [Example 306, (3S)-3-(3,5-difluorophenyl)-N-[5-fluoro-4-(2-{(2S)-1-[(1-methyl-1H-pyrazol-3-yl)sulfonyl]piperazin-2-yl}ethyl)pyridin-3-yl]-3-(4-fluorophenyl)propanamide], the IC50 came to 6.5 nM.

As to `COC(=O)N[C@H](C(=O)Nc1cccc(F)c1CC[C@H]1CNC[C@H](C)N1S(=O)(=O)c1ccccc1)[C@@H](c1cccc(Cl)c1)C(C)C` [Example 209, (βR)-3-chloro-N-(3-fluoro-2-{2-[(2S,6S)-6-methyl-1-(phenylsulfonyl)piperazin-2-yl]ethyl}phenyl)-Nα-(methoxycarbonyl)-β-(1-methylethyl)-L-phenylalaninamide], the IC50 is 77 nM.

As to `C[C@@H]1C[C@H]([C@H](c2ccc(F)cc2)[C@H](N)C(=O)Nc2cccc(F)c2CC[C@H]2CNC[C@@H](C)N2S(=O)(=O)c2ccc(F)cc2)C[C@H](C)O1` [Example 371, (2S,3R)-2-amino-3-((2R,4r,6S)-2,6-dimethyltetrahydro-2H-pyran-4-yl)-N-(3-fluoro-2-(2-((2S,6S)-1-((4-fluorophenyl)sulfonyl)-6-methylpiperazin-2-yl)ethyl)phenyl)-3-(4-fluorophenyl)propanamide], the IC50 came out at 9.6 nM.

As for `N[C@H](C(=O)Nc1cccc(F)c1CC[C@H]1CNCCN1S(=O)(=O)c1ccccc1)[C@@H](c1ccc(Cl)cc1)c1cccc(OC(F)(F)F)c1` [Example 42, (βS)-4-chloro-N-(3-fluoro-2-{2-[(2S)-1-(phenylsulfonyl)piperazin-2-yl]ethyl}phenyl)-β-[3-(trifluoromethoxy)phenyl]-L-phenylalaninamide], the IC50 was determined as 60 nM.

On to `COc1ccc([C@H](c2ccc(Cl)cc2)[C@H](N)C(=O)Nc2cccc(F)c2CC[C@H]2CNC[C@H](C)N2S(C)(=O)=O)cn1` [Example 164, (βS)-4-chloro-N-(3-fluoro-2-{2-[(2S,6S)-6-methyl-1-(methylsulfonyl)piperazin-2-yl]ethyl}phenyl)-β-(6-methoxypyridin-3-yl)-L-phenylalaninamide], for which the IC50 was determined as 37 nM.

Regarding `CCCS(=O)(=O)N1CCNC[C@@H]1CCc1c(F)cncc1NC(=O)C[C@@H](c1ccc(F)cc1)c1cc(F)cc(F)c1` [Example 317, (3S)-3-(3,5-difluorophenyl)-3-(4-fluorophenyl)-N-(5-fluoro-4-{2-[(2S)-1-(propylsulfonyl)piperazin-2-yl]ethyl}pyridin-3-yl)propanamide], the IC50 is 24 nM.

Consider `COC(=O)N[C@H](C(=O)Nc1cccc(F)c1CC[C@H]1CNCCN1S(=O)(=O)c1ccccc1)[C@@H](c1ccc(Cl)cc1)c1cncc(F)c1` [Example 55, (βS)-4-chloro-N-(3-fluoro-2-{2-[(2S)-1-(phenylsulfonyl)piperazin-2-yl]ethyl}phenyl)-β-(5-fluoropyridin-3-yl)-Nα-(methoxycarbonyl)-L-phenylalaninamide], for which the IC50 was 9 nM.

As for `O=C(C[C@@H](c1ccc(F)cc1)c1cc(F)cc(F)c1)Nc1cncc(F)c1CC[C@H]1CNCCN1S(=O)(=O)c1cnc2ccccc2c1` [Example 321, (3S)-3-(3,5-difluorophenyl)-3-(4-fluorophenyl)-N-(5-fluoro-4-{2-[(2S)-1-(quinolin-3-ylsulfonyl)piperazin-2-yl]ethyl}pyridin-3-yl)propanamide], the IC50 was found to be 29 nM.

As to `C[C@H]1CNC[C@H](CCc2c(F)cncc2NC(=O)[C@@H](N)[C@@H](c2ccc(F)cc2)c2cc(F)cc(F)c2)N1S(C)(=O)=O` [Example 191, (βS)-β-(3,5-difluorophenyl)-4-fluoro-N-(5-fluoro-4-{2-[(2S,6S)-6-methyl-1-(methylsulfonyl)piperazin-2-yl]ethyl}pyridin-3-yl)-L-phenylalaninamide], the IC50 is 20 nM.

With `C[C@H]1CNC[C@H](CCc2c(F)cccc2NC(=O)[C@@H](N)[C@@H](c2ccc(Cl)cc2)C2CCOCC2)N1S(=O)(=O)C1CC1` [Example 141, (βR)-4-chloro-N-(2-{2-[(2S,6S)-1-(cyclopropylsulfonyl)-6-methylpiperazin-2-yl]ethyl}-3-fluorophenyl)-β-(tetrahydro-2H-pyran-4-yl)-L-phenylalaninamide], the IC50 came out at 77 nM.

For the compound `C[C@H]1CNC[C@H](CCc2c(F)cncc2NC(=O)[C@@H](N)[C@@H](c2ccc(Cl)cc2)c2cccc(F)c2)N1S(=O)(=O)c1ccccc1` [Example 113, (βS)-β-(4-chlorophenyl)-3-fluoro-N-(5-fluoro-4-{2-[(2S,6S)-6-methyl-1-(phenylsulfonyl)piperazin-2-yl]ethyl}pyridin-3-yl)-L-phenylalaninamide], the IC50 turned out to be 25 nM.

In the case of `C[C@H]1CNC[C@H](CCc2c(F)cncc2NC(=O)[C@@H](N)[C@@H](c2ccc(Cl)cc2)c2cccc(F)c2)N1S(C)(=O)=O` [Example 213, (βS)-4-chloro-N-(5-fluoro-4-{2-[(2S,6S)-6-methyl-1-(methylsulfonyl)piperazin-2-yl]ethyl}pyridin-3-yl)-β-(3-fluorophenyl)-L-phenylalaninamide], the IC50 stood at 29 nM.

On to `O=C(C[C@@H](c1ccc(F)cc1)c1cc(F)cc(F)c1)Nc1cncc(F)c1CC[C@H]1CNCCN1C(=O)N1CCCCC1` [Example 341, (3S)-3-(3,5-difluorophenyl)-3-(4-fluorophenyl)-N-(5-fluoro-4-{2-[(2S)-1-(piperidin-1-ylcarbonyl)piperazin-2-yl]ethyl}pyridin-3-yl)propanamide], for which the IC50 is 450 nM.

Still in this assay, the particulars now being: MT4-GFP cells infected with HIV-1 H9IIIB; 50% normal human serum; mean of at least two independent experiments; read-out: Cell-based IP.
With `COCC1CNC[C@H](CCc2c(F)cccc2NC(=O)[C@@H](N)[C@@H](c2ccc(Cl)cc2)C2CCOCC2)N1S(C)(=O)=O` (stereo partly drawn) [Example 218, (βR)-4-chloro-N-(3-fluoro-2-{2-[(2S)-6-(methoxymethyl)-1-(methylsulfonyl)piperazin-2-yl]ethyl}phenyl)-β-(tetrahydro-2H-pyran-4-yl)-L-phenylalaninamide], the IC50 is 310 nM.

For the origin of these results see US9840478B2 (MERCK SHARP & DOHME CORP., priority 2013, dated 2017).
